What all share (assay): relative viability (nuclei count vs DMSO), 5 days (fraction); higher = more cells survive
Conditions in all cases: main component drawn

Compound in assay [1]: CC1=C(N=C(N=C1N)[C@H](CC(=O)N)NC[C@@H](C(=O)N)N)C(=O)N[C@@H]([C@H](C2=CN=CN2)OC3C(C(C(C(O3)CO)O)O)OC4C(C(C(C(O4)CO)O)OC(=O)N)O)C(=O)N[C@H](C)[C@H]([C@H](C)C(=O)N[C@@H]([C@@H](C)O)C(=O)NCCC5=NC(=CS5)C6=NC(=CS6)C(=O)NCCC[S+](C)C)O [Bleomycin] + C[C@@H](Oc1cc(-c2cnn(C3CCNCC3)c2)cnc1N)c1c(Cl)ccc(F)c1Cl [Crizotinib] (partner 1 µM)
The procedure, abridged:
(§1)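 Relative viability divides the nuclei count in treated wells by that in vehicle wells. Lung cancer cell lines were seeded in 1536-well plates, dosed by pin tool the next day, and fixed and stained after 5 days in one step with final 0.05% Triton X-100, 1% formaldehyde and 1 ug/ml Hoechst. Dosing was a single drug or a fixed anchor-drug dose plus five library-drug doses (not always all listed) in √10 steps, and values are medians of duplicate plates imaged at 4×.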

Compound in assay [2]: CC1=C(N=C(N=C1N)[C@H](CC(=O)N)NC[C@@H](C(=O)N)N)C(=O)N[C@@H]([C@H](C2=CN=CN2)OC3C(C(C(C(O3)CO)O)O)OC4C(C(C(C(O4)CO)O)OC(=O)N)O)C(=O)N[C@H](C)[C@H]([C@H](C)C(=O)N[C@@H]([C@@H](C)O)C(=O)NCCC5=NC(=CS5)C6=NC(=CS6)C(=O)NCCC[S+](C)C)O [Bleomycin] + Cc1nc(Nc2ncc(C(=O)Nc3c(C)cccc3Cl)s2)cc(N2CCN(CCO)CC2)n1 [Dasatinib] (partner 0.075 µM)
The gist of the method: as §1

Compound in assay [3]: CC1=C(N=C(N=C1N)[C@H](CC(=O)N)NC[C@@H](C(=O)N)N)C(=O)N[C@@H]([C@H](C2=CN=CN2)OC3C(C(C(C(O3)CO)O)O)OC4C(C(C(C(O4)CO)O)OC(=O)N)O)C(=O)N[C@H](C)[C@H]([C@H](C)C(=O)N[C@@H]([C@@H](C)O)C(=O)NCCC5=NC(=CS5)C6=NC(=CS6)C(=O)NCCC[S+](C)C)O [Bleomycin] + Cc1nc(NC(=O)N2CCC[C@H]2C(N)=O)sc1-c1ccnc(C(C)(C)C(F)(F)F)c1 [Alpelisib] (partner 2 µM)
The gist of the method: as §1

Compound in assay [4]: CC1=C(N=C(N=C1N)[C@H](CC(=O)N)NC[C@@H](C(=O)N)N)C(=O)N[C@@H]([C@H](C2=CN=CN2)OC3C(C(C(C(O3)CO)O)O)OC4C(C(C(C(O4)CO)O)OC(=O)N)O)C(=O)N[C@H](C)[C@H]([C@H](C)C(=O)N[C@@H]([C@@H](C)O)C(=O)NCCC5=NC(=CS5)C6=NC(=CS6)C(=O)NCCC[S+](C)C)O [Bleomycin] + Cc1cc(Nc2cc(N3CCN(C)CC3)nc(Sc3ccc(NC(=O)C4CC4)cc3)n2)n[nH]1 [Tozasertib] (partner 0.1 µM)
The procedure, abridged:
as §1

For UMC-11, the relative viability was 0.528 in assay [1] (first compound 0.01 µM); 0.571 in assay [1] (first compound 0.03162 µM); 0.419 in assay [1] (first compound 0.1 µM); 0.326 in assay [1] (first compound 0.3162 µM); 0.252 in assay [1] (first compound 1 µM); 0.448 in assay [2] (first compound 0.01 µM). The relative viability in assay [2] (first compound 0.03162 µM) came to 0.511; in assay [2] (first compound 0.1 µM), 0.495; in assay [2] (first compound 0.3162 µM), 0.385; in assay [2] (first compound 1 µM), 0.328; in assay [3] (first compound 0.01 µM) it was 0.873; in assay [3] (first compound 0.03162 µM), 0.935. The relative viability was determined as 0.826 in assay [3] (first compound 0.1 µM); 0.598 in assay [3] (first compound 0.3162 µM); 0.44 in assay [3] (first compound 1 µM); 0.185 in assay [4] (first compound 0.01 µM); 0.196 in assay [4] (first compound 0.03162 µM); 0.208 in assay [4] (first compound 0.1 µM). Further, the relative viability came out at 0.203 in assay [4] (first compound 0.3162 µM) and 0.18 in assay [4] (first compound 1 µM).

The record behind these values is the supplement of paper PMC10307832.
